In the OligoGym collection:
After the bases stand the sugars from the 5' end (letter, count) and the backbone: PS all phosphorothioate, else s phosphorothioate and o phosphodiester by linkage. Methylation of C is not given here. e = 2'-O-(2-methoxyethyl) (MOE); k = constrained ethyl (cEt); d = 2'-deoxy (DNA); m = 2'-O-methyl

Molecular target: HSD17B13
Settings: ASO, HepaRG

| Sequence | target mRNA inhibition (1 µM) [%] | other results |
| --- | --- | --- |
| GCTGUAAGAGTCAGTA (sugars k3 d1 m1 d8 k3, PS) | 28 | – |
| GCTTAATGTTCAGTTT (sugars k3 d10 k3, PS) | 50 | – |
| GCTTATGAAGTTAGTA (sugars k3 d10 k3, PS) | 67 | target mRNA inhibition (0.02 µM): 0%; target mRNA inhibition (0.078 µM): 17%; target mRNA inhibition (0.313 µM): 27%; target mRNA inhibition (1.25 µM): 66%; target mRNA inhibition (5 µM): 86% |
| GCTTTAGCTTAAACTC (sugars k3 d10 k3, PS) | 72 | – |
| GCTTTTGTCCACCTTT (sugars k3 d10 k3, PS) | 68 | target mRNA inhibition (0.02 µM): 28%; target mRNA inhibition (0.078 µM): 44%; target mRNA inhibition (0.313 µM): 61%; target mRNA inhibition (1.25 µM): 82%; target mRNA inhibition (5 µM): 97% |
| GGAATGCTACTTGAAC (sugars k3 d10 k3, PS) | 63 | – |
| GGACAAATGCCTGAGA (sugars k3 d10 k3, PS) | 52 | – |
| GGACCAAGGATATATG (sugars k3 d10 k3, PS) | 56 | – |
| GGAGGTAGCTTTTGTC (sugars k3 d10 k3, PS) | 43 | – |
| GGATAAGAAGAGAGCT (sugars k3 d10 k3, PS) | 46 | – |
| GGATAGTCCATGCAAA (sugars k3 d10 k3, PS) | 64 | – |
| GGCAAAAGGAGCCAGT (sugars k3 d10 k3, PS) | 43 | – |
| GGCAAAGATCTGGCCA (sugars k3 d10 k3, PS) | 10 | – |
| GGCAAATACAGCAGTA (sugars k3 d10 k3, PS) | 64 | – |
| GGCAAGACAGACTGTT (sugars k3 d10 k3, PS) | 75 | – |
| GGCAAGGATACCTGAA (sugars k3 d10 k3, PS) | 67 | – |
| GGCACTCAGCTGCAGT (sugars k3 d10 k3, PS) | 49 | – |
| GGCATTAGATGGTAAG (sugars k3 d10 k3, PS) | 62 | – |
| GGCTACAGATTGGAAT (sugars k3 d10 k3, PS) | 23 | – |

| Sequence | target mRNA inhibition (1 µM) [%] | other results |
| --- | --- | --- |
| GGCTTAATGTTCAGTT (sugars k3 d10 k3, PS) | 54 | – |
| GGCTTAATTTTCGGGT (sugars k3 d10 k3, PS) | 17 | – |
| GGGACCAAGGATATAT (sugars k3 d10 k3, PS) | 17 | – |
| GGGAGGAGGTACTGTC (sugars k3 d10 k3, PS) | 35 | – |
| GGGAGGTAGCTTTTGT (sugars k3 d1 m1 d8 k3, PS) | 17 | – |
| GGGCTAATGAAAAAGG (sugars k3 d10 k3, PS) | 14 | – |
| GGTAATCTCTTCATCC (sugars k3 d10 k3, PS) | 9 | – |
| GGTCCATTGTTTCTTA (sugars k3 d10 k3, PS) | 36 | – |
| GGTGCTGAGAAGATCG (sugars k3 d10 k3, PS) | 33 | – |
| GGTTCAGTCCTTGTGT (sugars k3 d10 k3, PS) | 57 | – |
| GTAAAATTATGCCTTG (sugars k3 d10 k3, PS) | 50 | – |
| GTAAAGGCTGGGTGAG (sugars k3 d10 k3, PS) | 41 | – |
| GTAACGGTGATCAAAT (sugars k3 d10 k3, PS) | 34 | – |
| GTAAGGAATCCCTTCG (sugars k3 d10 k3, PS) | 22 | – |
| GTAATAGCCAGTACAG (sugars kkdddddddddkekek, PS) | 47 | – |
| GTAGCTTTTGTCCACC (sugars k3 d9 k3 e1, PS) | 67 | – |
| GTAGTCCTAGGGAGGA (sugars k3 d10 k3, PS) | 77 | target mRNA inhibition (0.02 µM): 20%; target mRNA inhibition (0.078 µM): 50%; target mRNA inhibition (0.313 µM): 62%; target mRNA inhibition (1.25 µM): 75%; target mRNA inhibition (5 µM): 86% |
| GTATCATTTGGCTTAA (sugars k3 d10 k3, PS) | 29 | – |
